Assay results: patent publication US6699459B2, “Methods of treating lung inflammation” (The Board of Regents of the University of Texas System, priority 2001, dated 2004)

How the values were obtained:
RANTES [1] = assay: RSV-induced RANTES secretion in A549 cells (ELISA); assay type: cell-based, human; conditions: for RSV-induced RANTES production: A549 cells, 24 hours, ELISA; for RSV-induced RANTES secretion: concentration not given, data not shown
Protocol: (§1) Cell culture and infection of epithelial cells with RSV. A549, human alveolar type II-like epithelial cells (ATCC, Manassas, Va.), were maintained in F12K medium containing 10% (v/v) fetal bovine serum (FBS), 10 mM glutamine, 100 IU/ml penicillin and 100 μg/ml streptomycin. Small alveolar epithelial cells (SAE) were obtained from Clonetics (San Diego, Calif.) and grown according to the company instructions. Cell monolayers were infected with RSV at multiplicity of infection (MOI) of 1 (unless otherwise stated), as described (17). An equivalent amount of a 20% sucrose solution was added to uninfected A549 cells, as a control. For the antioxidant experiments, cells were pretreated with the antioxidants for one hour and then infected in the presence of the antioxidants. Since BHA was diluted in ethanol, equal amounts of ethanol were added to untreated cells, as a control. Total number of cells, cell viability and viral replication, following antioxidant treatment, were measured by trypan blue exclusion and by plaque assay, respectively. RANTES ELISA. Immunoreactive RANTES was quantitated by a double antibody ELISA kit (DuoSet, R&D Systems, Minneapolis, Minn.) following the manufacturer's protocol.

RANTES [2] = assay: RSV-induced RANTES secretion in SAE cells (ELISA); assay type: cell-based, human; conditions: 20 mM, 24 hours, ELISA
Protocol: as §1

STAT = assay: RSV-induced STAT activation in alveolar epithelial cells; assay type: cell-based
NOS-2 = conditions: retinal epithelial cells, LPS/Interferon-γ; Faure et al. (40); cited from earlier work

## CN(C)C(=S)N(C)C [TMTU, tetramethyl thiourea, reference compound]
RANTES [1]; 20 mM
  RSV-induced RANTES production: significantly block
RANTES [2]
  RSV-induced RANTES production: significantly reduced

## CC(=O)N[C@@H](CS)C(=O)O [NAC, N-acetyl cystein, reference compound]
RANTES [1]; 20 mM
  RSV-induced RANTES production: significantly block
RANTES [2]
  RSV-induced RANTES production: significantly reduced

## c1ccc2c(c1)[I+]c1ccccc1-2 [DPI]
STAT
  STAT activation following RSV infection: greatly reduces (or abolishes)

## S=C(S)N1CCCC1 [PDTC]
NOS-2
  NOS-2 induction: able to inhibit

## COC(=O)[C@@H](N)CCCNC(=N)N[N+](=O)[O-] [L-NAME]
RANTES [1]
  RSV-induced RANTES secretion: no changes

## CNC(=N)NCCC[C@H](N)C(=O)O [L-NMMA]
RANTES [1]
  RSV-induced RANTES secretion: no changes

## C[S+](C)[O-] [DMSO, dimethylsulphoxide]
RANTES [1]; 2% (v/v)
  RSV-induced RANTES production: significantly block
